These results are taken from ChEMBL document CHEMBL5346924, “Optically activated MEK1/2 inhibitors (Opti-MEKi) as potential antimelanoma agents” (Eur J Med Chem, 2023).

The nature of series [1]: Metabolic stability in human liver microsomes assessed as parent compound remaining measured after 1 hrs in the absence of NADPH regenerating system. In kind it is ADME, Microsome. The conditions noted are these: read-out: Stability.
Series [2] deals with A-375. Briefly: Antiproliferative activity against human A-375 cells harboring BRAF V600E mutant assessed as cell growth inhibition preincubated with compound for 1 hrs followed by UV irradiation for 1 min and measured 72 hrs post compound treatment by CellTiter-Glo luminescent assay. In kind it is functional. The conditions noted are these: A-375, light or radiation study. Background: In ATP-based viability assays light output follows the ATP content of the culture.

The subject of series [3] is A-375. The series is described as follows: Antiproliferative activity against CM-Dil labelled human A-375 cells xenografted in Zebra fish AB at 45 pM administered from 3 days post fertilization and measured at day 5 post fertilization in the absence of irradiation by fluorescence based analysis. In kind it is functional, cell-based. Conditions: time 48.0 hrs.
In another series the test system is A549. Briefly: Antiproliferative activity against human A549 cells harboring KRAS […] mutant assessed as cell growth inhibition incubated for 72 hrs in the absence of UV irradiation by CellTiter-Glo luminescent assay. In kind it is functional. The conditions noted are these: A549, light or radiation study.
In series [4] the test system is A-375. The series is described as follows: Inhibition of colony formation in human A-375 cells preincubated with compound for 1 hrs followed by 365 nm light irradiation for 5 mins and measured for 10 days by crystal violet staining based analysis. It is filed as functional, cell-based. Conditions: dose 10-300 nM, time 14465.0 min.
The target in series [5] is Mitogen-activated protein kinase; ERK1/ERK2 (Homo sapiens, UniProt P27361+P28482). The series is described as follows: Inhibition of ERK1/2 phosphorylation in human A-375 cells preincubated with compound for 1 hrs followed by 365 nm light irradiation for 5 mins and measured after 1 hrs compound treatment by Western blot analysis. It is filed as cell-based. The conditions noted are these: dose 1-100 nM, time 125.0 min. A general note: A western blot detects proteins with antibodies after separation by electrophoresis.

Series [6] concerns A-375. Briefly: Antiproliferative activity against human A-375 cells harboring BRAF V600E mutant assessed as cell growth inhibition incubated for 72 hrs in the absence of UV irradiation by CellTiter-Glo luminescent assay. In kind it is functional. The conditions noted are these: A-375, light or radiation study.
The target of another series is CYP2D6 (Homo sapiens, UniProt P10635). The series is described as follows: Inhibition of CYP2D6 in human microsomes at 10 uM in the presence of NADPH relative to control. In kind it is ADME, Microsome.
Series [7] has as its system A-375. The series is described as follows: Antiproliferative activity against human A-375 cells harboring BRAF V600E mutant assessed as cell growth inhibition preincubated with compound for 1 hrs followed by UV irradiation for 5 mins and measured 72 hrs post compound treatment by CellTiter-Glo luminescent assay. In kind it is functional. The conditions noted are these: A-375, light or radiation study.

Series [8] concerns the target Epidermal growth factor receptor (Homo sapiens) (UniProt P00533). Briefly: Inhibition of recombinant human EGFR at 1 uM.
The next series concerns the target CYP2C9 (Homo sapiens, UniProt P11712). Briefly: Inhibition of CYP2C9 in human microsomes at 10 uM in the presence of NADPH relative to control. It is filed as ADME, Microsome.

SMILES strings stand for the structures. The source made the active and inactive calls. The rule behind the calls is not given here.

Chain of CYP2C9 (P11712 whole entry): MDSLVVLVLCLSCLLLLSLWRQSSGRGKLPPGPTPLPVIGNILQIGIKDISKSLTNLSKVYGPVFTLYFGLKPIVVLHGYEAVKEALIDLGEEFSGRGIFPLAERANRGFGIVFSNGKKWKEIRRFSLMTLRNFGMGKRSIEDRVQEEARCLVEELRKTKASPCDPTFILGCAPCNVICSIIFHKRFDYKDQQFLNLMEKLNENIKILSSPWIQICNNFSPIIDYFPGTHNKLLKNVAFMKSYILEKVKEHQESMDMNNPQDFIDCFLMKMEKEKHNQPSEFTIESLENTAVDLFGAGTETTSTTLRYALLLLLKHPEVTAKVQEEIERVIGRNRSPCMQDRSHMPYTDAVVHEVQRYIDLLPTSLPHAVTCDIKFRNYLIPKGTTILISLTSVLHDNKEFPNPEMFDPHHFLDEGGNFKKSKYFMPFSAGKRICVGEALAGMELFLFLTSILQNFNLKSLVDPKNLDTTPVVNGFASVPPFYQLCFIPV
Chain of Mitogen-activated protein kinase; ERK1/ERK2 (P27361 whole entry, looked up): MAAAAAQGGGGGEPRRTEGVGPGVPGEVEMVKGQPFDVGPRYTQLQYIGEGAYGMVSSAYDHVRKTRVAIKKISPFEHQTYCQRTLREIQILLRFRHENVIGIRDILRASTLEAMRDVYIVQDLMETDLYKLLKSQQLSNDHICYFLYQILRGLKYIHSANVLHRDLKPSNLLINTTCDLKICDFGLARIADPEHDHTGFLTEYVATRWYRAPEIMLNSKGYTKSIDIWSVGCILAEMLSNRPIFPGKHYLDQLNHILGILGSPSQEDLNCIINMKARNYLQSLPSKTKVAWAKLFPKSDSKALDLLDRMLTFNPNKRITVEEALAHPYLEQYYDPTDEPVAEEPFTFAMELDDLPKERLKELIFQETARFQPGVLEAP
Chain of Mitogen-activated protein kinase; ERK1/ERK2 (P28482 whole entry, looked up): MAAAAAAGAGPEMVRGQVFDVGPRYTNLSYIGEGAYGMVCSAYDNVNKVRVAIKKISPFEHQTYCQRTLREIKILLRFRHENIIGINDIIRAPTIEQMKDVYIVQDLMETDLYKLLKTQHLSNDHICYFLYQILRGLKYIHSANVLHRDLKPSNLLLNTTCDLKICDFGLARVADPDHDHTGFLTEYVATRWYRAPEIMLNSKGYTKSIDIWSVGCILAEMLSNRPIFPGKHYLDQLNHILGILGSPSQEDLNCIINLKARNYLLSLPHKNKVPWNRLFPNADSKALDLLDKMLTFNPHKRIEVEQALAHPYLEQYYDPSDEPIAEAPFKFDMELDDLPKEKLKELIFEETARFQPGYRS
Chain of CYP2D6 (P10635 whole entry): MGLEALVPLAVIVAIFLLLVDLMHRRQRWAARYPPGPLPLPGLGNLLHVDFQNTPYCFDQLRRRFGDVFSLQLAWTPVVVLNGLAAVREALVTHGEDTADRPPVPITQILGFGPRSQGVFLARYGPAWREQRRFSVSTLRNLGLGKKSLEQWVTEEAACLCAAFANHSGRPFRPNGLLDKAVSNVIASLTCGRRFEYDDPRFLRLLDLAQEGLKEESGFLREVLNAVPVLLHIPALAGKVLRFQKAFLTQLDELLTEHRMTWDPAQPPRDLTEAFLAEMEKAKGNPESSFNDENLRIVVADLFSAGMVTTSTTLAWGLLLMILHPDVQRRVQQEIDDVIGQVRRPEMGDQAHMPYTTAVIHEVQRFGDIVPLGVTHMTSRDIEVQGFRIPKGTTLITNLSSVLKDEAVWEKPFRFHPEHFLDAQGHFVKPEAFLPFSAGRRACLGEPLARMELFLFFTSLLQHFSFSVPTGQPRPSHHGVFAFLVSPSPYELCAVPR
Chain of Epidermal growth factor receptor (Homo sapiens) (P00533 whole entry): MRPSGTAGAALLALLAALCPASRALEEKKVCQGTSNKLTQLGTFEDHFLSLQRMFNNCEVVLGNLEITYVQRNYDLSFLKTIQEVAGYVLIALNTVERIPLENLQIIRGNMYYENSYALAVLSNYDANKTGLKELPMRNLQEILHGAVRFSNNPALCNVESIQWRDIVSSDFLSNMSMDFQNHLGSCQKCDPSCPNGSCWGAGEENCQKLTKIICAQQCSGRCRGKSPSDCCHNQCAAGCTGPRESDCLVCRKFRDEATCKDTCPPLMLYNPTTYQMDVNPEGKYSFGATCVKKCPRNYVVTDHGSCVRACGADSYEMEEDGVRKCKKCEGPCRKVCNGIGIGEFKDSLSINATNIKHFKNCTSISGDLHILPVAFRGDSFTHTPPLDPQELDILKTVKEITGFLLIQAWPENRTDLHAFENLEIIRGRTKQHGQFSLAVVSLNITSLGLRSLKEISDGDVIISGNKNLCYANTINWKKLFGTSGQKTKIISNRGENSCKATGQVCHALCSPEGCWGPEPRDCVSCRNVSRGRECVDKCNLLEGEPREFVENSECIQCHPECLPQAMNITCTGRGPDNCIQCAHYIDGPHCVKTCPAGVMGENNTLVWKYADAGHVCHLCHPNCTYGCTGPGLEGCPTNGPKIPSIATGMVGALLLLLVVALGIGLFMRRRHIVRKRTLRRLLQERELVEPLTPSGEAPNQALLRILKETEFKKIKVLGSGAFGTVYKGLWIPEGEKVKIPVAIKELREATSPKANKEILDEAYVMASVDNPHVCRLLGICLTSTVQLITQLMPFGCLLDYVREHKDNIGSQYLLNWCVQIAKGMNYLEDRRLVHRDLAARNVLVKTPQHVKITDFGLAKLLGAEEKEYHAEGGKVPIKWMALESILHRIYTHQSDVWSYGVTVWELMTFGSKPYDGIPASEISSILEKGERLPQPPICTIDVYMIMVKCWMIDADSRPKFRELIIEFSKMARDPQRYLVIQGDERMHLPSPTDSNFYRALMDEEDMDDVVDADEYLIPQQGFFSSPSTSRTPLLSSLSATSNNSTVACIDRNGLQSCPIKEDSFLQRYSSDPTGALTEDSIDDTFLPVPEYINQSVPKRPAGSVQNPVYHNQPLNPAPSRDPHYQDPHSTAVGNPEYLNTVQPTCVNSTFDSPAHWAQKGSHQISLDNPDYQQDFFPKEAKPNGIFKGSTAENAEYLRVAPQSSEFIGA

Consider `COc1cc(C(C)O/C(=N\OC[C@H](O)CO)c2ccc(F)c(F)c2Nc2ccc(I)cc2F)c([N+](=O)[O-])cc1OC` (stereo partly specified), for which the remaining at 1 h in series [1] came out at 84.5%. The GI50 (usually the concentration at which growth is held to half of that of the control) is 6.29 nM in the series with A-375 [2], more than 10000 nM in the series on A549, 12700 nM in the series on A-375 [6] and 2.13 nM in the series on A-375 [7]. Besides, in the series on A-375 [3], the result was inactive. The inhibition (commonly the share of the control response that was lost under treatment) with A-375 [4] is “Active”. Further, the inhibition entry in [5] is “Dose-Dependent Effect”. Further, the figures for the inhibition at 10 µM on CYP2D6 and on CYP2C9 were 21.5% and 63.3%, respectively. Further, in series [8], the inhibition entry is “inactive”.
